How the values were obtained:
COR-L279 = test: SANGER: Inhibition of human COR-L279 cell growth in a cell viability assay.; assay type: functional, cell-based
Capan-2 = test: cells; assay type: functional, cell-based; details: Homo sapiens
Description: SANGER: Inhibition of human Capan-2 cell growth in a cell viability assay.

DOK = test: cells; assay type: functional, cell-based; details: Homo sapiens
Description: SANGER: Inhibition of human DOK cell growth in a cell viability assay.

Daudi = test: cells; assay type: functional, cell-based; details: Homo sapiens
Description: SANGER: Inhibition of human Daudi cell growth in a cell viability assay.

DoTc2-4510 = test: cells; assay type: functional, cell-based; details: Homo sapiens
EGI-1 = test: cells; assay type: functional, cell-based; details: Homo sapiens
Description: SANGER: Inhibition of human EGI-1 cell growth in a cell viability assay.

G-402 = test: cells; assay type: functional, cell-based; details: Homo sapiens
Description: SANGER: Inhibition of human G-402 cell growth in a cell viability assay.

GAMG = test: cells; assay type: functional, cell-based; details: Homo sapiens
Description: SANGER: Inhibition of human GAMG cell growth in a cell viability assay.

GDM-1 = test: cells; assay type: functional, cell-based; details: Homo sapiens
Description: SANGER: Inhibition of human GDM-1 cell growth in a cell viability assay.

GP5d = test: cells; assay type: functional, cell-based; details: Homo sapiens
Description: SANGER: Inhibition of human GP5d cell growth in a cell viability assay.

HT-1080 = test: cells; assay type: functional, cell-based; details: Homo sapiens
Description: SANGER: Inhibition of human HT-1080 cell growth in a cell viability assay.

HT1197 = test: cells; assay type: functional, cell-based, HT-1197; details: Homo sapiens
Description: SANGER: Inhibition of human HT-1197 cell growth in a cell viability assay.

J82 = test: cells; assay type: functional, cell-based; details: Homo sapiens
Description: SANGER: Inhibition of human J82 cell growth in a cell viability assay.

JEG-3 = test: cells; assay type: functional, cell-based; details: Homo sapiens
Description: SANGER: Inhibition of human JEG-3 cell growth in a cell viability assay.

KYSE-410 = test: cells; assay type: functional, cell-based; details: Homo sapiens
Description: SANGER: Inhibition of human KYSE-410 cell growth in a cell viability assay.

KYSE-510 = test: cells; assay type: functional, cell-based; details: Homo sapiens
Description: SANGER: Inhibition of human KYSE-510 cell growth in a cell viability assay.

LB647-SCLC = test: cells; assay type: functional, cell-based; details: Homo sapiens
Description: SANGER: Inhibition of human LB647-SCLC cell growth in a cell viability assay.

LB996-RCC = test: cells; assay type: functional, cell-based; details: Homo sapiens
Description: SANGER: Inhibition of human LB996-RCC cell growth in a cell viability assay.

LC-1F = test: cells; assay type: functional, cell-based; details: Homo sapiens
Description: SANGER: Inhibition of human LC-1F cell growth in a cell viability assay.

M059J = test: cells; assay type: functional, cell-based; details: Homo sapiens
Description: SANGER: Inhibition of human M059J cell growth in a cell viability assay.

MDA-MB-231 = test: cells; assay type: functional, cell-based; details: Homo sapiens
Description: SANGER: Inhibition of human MDA-MB-231 cell growth in a cell viability assay.

MEL-JUSO = test: cells; assay type: functional, cell-based; details: Homo sapiens
Description: SANGER: Inhibition of human MEL-JUSO cell growth in a cell viability assay.

MHH-ES-1 = test: cells; assay type: functional, cell-based; details: Homo sapiens
Description: SANGER: Inhibition of human MHH-ES-1 cell growth in a cell viability assay.

MKN-1 = test: cells; assay type: functional, cell-based; details: Homo sapiens
Description: SANGER: Inhibition of human MKN1 cell growth in a cell viability assay.

MKN-45 = test: cells; assay type: functional, cell-based; details: Homo sapiens
Description: SANGER: Inhibition of human MKN45 cell growth in a cell viability assay.

MeWo = test: cells; assay type: functional, cell-based; details: Homo sapiens
Description: SANGER: Inhibition of human Mewo cell growth in a cell viability assay.

NCI-H1436 = test: cells; assay type: functional, cell-based; details: Homo sapiens
Description: SANGER: Inhibition of human NCI-H1436 cell growth in a cell viability assay.

NCI-H1651 = test: cells; assay type: functional, cell-based; details: Homo sapiens
Description: SANGER: Inhibition of human NCI-H1651 cell growth in a cell viability assay.

NCI-H1693 = test: cells; assay type: functional, cell-based; details: Homo sapiens
Description: SANGER: Inhibition of human NCI-H1693 cell growth in a cell viability assay.

NCI-H1993 = test: cells; assay type: functional, cell-based; details: Homo sapiens
Description: SANGER: Inhibition of human NCI-H1993 cell growth in a cell viability assay.

NCI-H2052 = test: cells; assay type: functional, cell-based; details: Homo sapiens
Description: SANGER: Inhibition of human NCI-H2052 cell growth in a cell viability assay.

NCI-H2141 = test: cells; assay type: functional, cell-based; details: Homo sapiens
Description: SANGER: Inhibition of human NCI-H2141 cell growth in a cell viability assay.

NCI-H2405 = test: cells; assay type: functional, cell-based; details: Homo sapiens
Description: SANGER: Inhibition of human NCI-H2405 cell growth in a cell viability assay.

NCI-H661 = test: cells; assay type: functional, cell-based; details: Homo sapiens
Description: SANGER: Inhibition of human NCI-H661 cell growth in a cell viability assay.

NCI-H889 = test: cells; assay type: functional, cell-based; details: Homo sapiens
Description: SANGER: Inhibition of human NCI-H889 cell growth in a cell viability assay.

NCI-N87 = test: cells; assay type: functional, cell-based; details: Homo sapiens
Description: SANGER: Inhibition of human NCI-N87 cell growth in a cell viability assay.

OAW-28 = test: cells; assay type: functional, cell-based; details: Homo sapiens
Description: SANGER: Inhibition of human OAW-28 cell growth in a cell viability assay.

OVCAR-3 = test: cells; assay type: functional, cell-based; details: Homo sapiens
Description: SANGER: Inhibition of human OVCAR-3 cell growth in a cell viability assay.

P31-FUJ = test: cells; assay type: functional, cell-based; details: Homo sapiens
Description: SANGER: Inhibition of human P31-FUJ cell growth in a cell viability assay.

PANC-08-13 = test: cells; assay type: functional, cell-based; details: Homo sapiens
Description: SANGER: Inhibition of human PANC-08-13 cell growth in a cell viability assay.

RPMI 8402 = test: SANGER: Inhibition of human RPMI-8402 cell growth in a cell viability assay.; assay type: functional, cell-based
RVH-421 = test: cells; assay type: functional, cell-based; details: Homo sapiens
Description: SANGER: Inhibition of human RVH-421 cell growth in a cell viability assay.

SAS = test: cells; assay type: functional, cell-based; details: Homo sapiens
Description: SANGER: Inhibition of human SAS cell growth in a cell viability assay.

SIG-M5 = test: cells; assay type: functional, cell-based; details: Homo sapiens
Description: SANGER: Inhibition of human SIG-M5 cell growth in a cell viability assay.

SK-MES-1 = test: cells; assay type: functional, cell-based; details: Homo sapiens
Description: SANGER: Inhibition of human SK-MES-1 cell growth in a cell viability assay.

SK-MM-2 = test: cells; assay type: functional, cell-based; details: Homo sapiens
Description: SANGER: Inhibition of human SK-MM-2 cell growth in a cell viability assay.

SK-OV-3 = test: cells; assay type: functional, cell-based; details: Homo sapiens
Description: SANGER: Inhibition of human SK-OV-3 cell growth in a cell viability assay.

SNU-387 = test: cells; assay type: functional, cell-based; details: Homo sapiens
Description: SANGER: Inhibition of human SNU-387 cell growth in a cell viability assay.

SNU-C1 = test: cells; assay type: functional, cell-based; details: Homo sapiens
Description: SANGER: Inhibition of human SNU-C1 cell growth in a cell viability assay.

SW1573 = test: cells; assay type: functional, cell-based; details: Homo sapiens
Description: SANGER: Inhibition of human SW1573 cell growth in a cell viability assay.

SiHa = test: cells; assay type: functional, cell-based; details: Homo sapiens
Description: SANGER: Inhibition of human SiHa cell growth in a cell viability assay.

T98G = test: cells; assay type: functional, cell-based; details: Homo sapiens
Description: SANGER: Inhibition of human T98G cell growth in a cell viability assay.

A2780 = test: cells; assay type: functional, cell-based; details: Homo sapiens
Description: SANGER: Inhibition of human A2780 cell growth in a cell viability assay.

A-431 = test: cells; assay type: functional, cell-based; details: Homo sapiens
Description: SANGER: Inhibition of human A431 cell growth in a cell viability assay.

BC1 cell line = test: SANGER: Inhibition of human BC-1 cell growth in a cell viability assay.; assay type: functional, cell-based
BC-3 = test: cells; assay type: functional, cell-based; details: Homo sapiens
Description: SANGER: Inhibition of human BC-3 cell growth in a cell viability assay.

BFTC-905 = test: cells; assay type: functional, cell-based; details: Homo sapiens
Description: SANGER: Inhibition of human BFTC-905 cell growth in a cell viability assay.

BL-41 = test: cells; assay type: functional, cell-based; details: Homo sapiens
Description: SANGER: Inhibition of human BL-41 cell growth in a cell viability assay.

BXPC-3 = test: cells; assay type: functional, cell-based; details: Homo sapiens
Description: SANGER: Inhibition of human BxPC-3 cell growth in a cell viability assay.

CAL-72 = test: cells; assay type: functional, cell-based; details: Homo sapiens
Description: SANGER: Inhibition of human CAL-72 cell growth in a cell viability assay.

TE-15 = test: cells; assay type: functional, cell-based; details: Homo sapiens
Description: SANGER: Inhibition of human TE-15 cell growth in a cell viability assay.

UACC-893 = test: cells; assay type: functional, cell-based; details: Homo sapiens
Description: SANGER: Inhibition of human UACC-893 cell growth in a cell viability assay.

COLO-678 = test: cells; assay type: functional, cell-based; details: Homo sapiens
Description: SANGER: Inhibition of human COLO-678 cell growth in a cell viability assay.

COLO-680N = test: cells; assay type: functional, cell-based; details: Homo sapiens
Description: SANGER: Inhibition of human COLO-680N cell growth in a cell viability assay.

## CC(O)(CS(=O)(=O)c1ccc(F)cc1)C(=O)Nc1ccc(C#N)c(C(F)(F)F)c1 (stereo not drawn) [BICALUTAMIDE]
COR-L279
  IC50: > 1020 nM
Capan-2
  IC50: > 1020 nM
DOK
  IC50: > 1020 nM
Daudi
  IC50: > 1020 nM
DoTc2-4510
  IC50: > 1020 nM
EGI-1
  IC50: > 1020 nM
G-402
  IC50: > 1020 nM
GAMG
  IC50: > 1020 nM
GDM-1
  IC50: > 1020 nM
GP5d
  IC50: > 1020 nM
HT-1080
  IC50: > 1020 nM
HT1197
  IC50: > 1020 nM
J82
  IC50: > 1020 nM
JEG-3
  IC50: > 1020 nM
KYSE-410
  IC50: > 1020 nM
KYSE-510
  IC50: > 1020 nM
LB647-SCLC
  IC50: > 1020 nM
LB996-RCC
  IC50: > 1020 nM
LC-1F
  IC50: > 1020 nM
M059J
  IC50: > 1020 nM
MDA-MB-231
  IC50: > 1020 nM
MEL-JUSO
  IC50: > 1020 nM
MHH-ES-1
  IC50: > 1020 nM
MKN-1
  IC50: > 1020 nM
MKN-45
  IC50: > 1020 nM
MeWo
  IC50: > 1020 nM
NCI-H1436
  IC50: > 1020 nM
NCI-H1651
  IC50: > 1020 nM
NCI-H1693
  IC50: > 1020 nM
NCI-H1993
  IC50: > 1020 nM
NCI-H2052
  IC50: > 1020 nM
NCI-H2141
  IC50: > 1020 nM
NCI-H2405
  IC50: > 1020 nM
NCI-H661
  IC50: > 1020 nM
NCI-H889
  IC50: > 1020 nM
NCI-N87
  IC50: > 1020 nM
OAW-28
  IC50: > 1020 nM
OVCAR-3
  IC50: > 1020 nM
P31-FUJ
  IC50: > 1020 nM
PANC-08-13
  IC50: > 1020 nM
RPMI 8402
  IC50: > 1020 nM
RVH-421
  IC50: > 1020 nM
SAS
  IC50: > 1020 nM
SIG-M5
  IC50: > 1020 nM
SK-MES-1
  IC50: > 1020 nM
SK-MM-2
  IC50: > 1020 nM
SK-OV-3
  IC50: > 1020 nM
SNU-387
  IC50: > 1020 nM
SNU-C1
  IC50: > 1020 nM
SW1573
  IC50: > 1020 nM
SiHa
  IC50: > 1020 nM
T98G
  IC50: > 1020 nM
A2780
  IC50: > 1020 nM
A-431
  IC50: > 1020 nM
BC1 cell line
  IC50: > 1020 nM
BC-3
  IC50: > 1020 nM
BFTC-905
  IC50: > 1020 nM
BL-41
  IC50: > 1020 nM
BXPC-3
  IC50: > 1020 nM
CAL-72
  IC50: > 1020 nM
TE-15
  IC50: > 1020 nM
UACC-893
  IC50: > 1020 nM
COLO-678
  IC50: > 1020 nM
COLO-680N
  IC50: > 1020 nM

## CCNC(=O)c1noc(-c2cc(C(C)C)c(O)cc2O)c1-c1ccc(CN2CCOCC2)cc1 [LUMINESPIB]
COR-L279
  IC50: 158 nM
Capan-2
  IC50: 6.38 nM
DOK
  IC50: > 256 nM
Daudi
  IC50: 33.8 nM
DoTc2-4510
  IC50: 21.2 nM
EGI-1
  IC50: 180 nM
G-402
  IC50: 36.1 nM
GAMG
  IC50: 13.7 nM
GDM-1
  IC50: 8.4 nM
GP5d
  IC50: 27.2 nM
HT-1080
  IC50: 22.1 nM
HT1197
  IC50: 16.8 nM
J82
  IC50: 30.1 nM
JEG-3
  IC50: 95.1 nM
KYSE-410
  IC50: 15.9 nM
KYSE-510
  IC50: 14.4 nM
LB647-SCLC
  IC50: 240 nM
LB996-RCC
  IC50: 27.1 nM
LC-1F
  IC50: > 256 nM
M059J
  IC50: 22.4 nM
MDA-MB-231
  IC50: 90.8 nM
MEL-JUSO
  IC50: 16.8 nM
MHH-ES-1
  IC50: 12.6 nM
MKN-1
  IC50: 49.3 nM
MKN-45
  IC50: 206 nM
MeWo
  IC50: > 256 nM
NCI-H1436
  IC50: 218 nM
NCI-H1651
  IC50: 24.3 nM
NCI-H1693
  IC50: 36.2 nM
NCI-H1993
  IC50: > 256 nM
NCI-H2052
  IC50: 104 nM
NCI-H2141
  IC50: 238 nM
NCI-H2405
  IC50: 28.9 nM
NCI-H661
  IC50: 112 nM
NCI-H889
  IC50: > 256 nM
NCI-N87
  IC50: 78 nM
OAW-28
  IC50: > 256 nM
OVCAR-3
  IC50: 141 nM
P31-FUJ
  IC50: > 256 nM
PANC-08-13
  IC50: 77.2 nM
RPMI 8402
  IC50: > 256 nM
RVH-421
  IC50: 19.6 nM
SAS
  IC50: 92.1 nM
SIG-M5
  IC50: 4.89 nM
SK-MES-1
  IC50: 9.45 nM
SK-MM-2
  IC50: 111 nM
SK-OV-3
  IC50: 6.3 nM
SNU-387
  IC50: 92.2 nM
SNU-C1
  IC50: > 256 nM
SW1573
  IC50: 58 nM
SiHa
  IC50: > 256 nM
T98G
  IC50: 74.2 nM
A2780
  IC50: 17.1 nM
A-431
  IC50: 6.07 nM
BC1 cell line
  IC50: 33.7 nM
BC-3
  IC50: 30.2 nM
BFTC-905
  IC50: 9.38 nM
BL-41
  IC50: 56 nM
BXPC-3
  IC50: 43.4 nM
CAL-72
  IC50: 166 nM
TE-15
  IC50: 13.4 nM
UACC-893
  IC50: 59 nM
COLO-678
  IC50: > 256 nM
COLO-680N
  IC50: 44.1 nM

Reference: ChEMBL document CHEMBL1201861, “Genomics of Drug Sensitity in Cancer screening data, Wellcome Trust Sanger Institute”
